The values that follow come from US9737522B2, “NMDA receptor modulators and uses related thereto” (EMORY UNIVERSITY, priority 2012, dated 2017).

Assay type in all cases: cell-based
The target of test [1] is recombinant rat GluN1/GluN2C receptors (NR2C) (Rattus norvegicus (Rat), UniProt P35439+Q00961). Briefly: Two-electrode voltage-clamp recordings, Xenopus laevis oocytes, NR2C. Particulars: head prints IC50; method describes EC50 of potentiator. The protocol: (§1) Two-electrode voltage-clamp recordings were made from Xenopus laevis oocytes expressing recombinant rat GluN1/GluN2A, GluN1/GluN2B, GluN1/GluN2C, GluN1/GluN2D, GluA1, or GluK2 receptors following injection of 5-10 ng of cRNA synthesized according to manufacturers' protocols (Ambin, mMessage, mMachine). cDNAs used were rat GluN1-1a (GenBank accession numbers U11418 and U08261; hereafter GluN1), GluN2A (D13211), GluN2B (U11419), GluN2C (M91563), GluN2D (L31611), GluA1 (X17184), GluK2 (Z11548). The current under voltage-clamp was recorded during perfusion with recording solution containing (in mM) 90 NaCl, 1.0 KCl, 0.5 BaCl2, 0.005 EDTA, and 10 HEPES at pH 7.4 (23° C.). Glass micropipettes had resistances of 0.3-1.0 MS2 and were filled with 3.0 M KCl. The membrane potential was clamped at −40 mV during the experiment. Recordings were digitized at 10 Hz and analyzed off line. 20 mM stock solutions of test compounds in 100% DMSO were made and diluted to obtain the final concentration; final DMSO content was 0.05-0.5% (vol/vol). Oocytes expressing GluK2 homomeric receptors were first treated with 10 μM concanavalin A (10 minutes). NMDA receptor responses were obtained by challenging oocytes with 100 μM glutamate plus 30 μM glycine; GluA1 and GluK2 receptors responses were recorded during application of 100 μM glutamate. We recorded the response to 5-7 concentrations of test drug co-applied with glutamate and glycine in 5 or more oocytes obtained from two different frogs. […] N is the Hill slope and maximum is the response predicted for saturating concentration of potentiator.
(In general: Two-electrode voltage clamp is typically applied to oocytes expressing channels or transporters.)

Test [2] concerns the target recombinant rat GluN1/GluN2A receptors (NR2A) (Rattus norvegicus (Rat), UniProt P35439+Q00959). Briefly: Two-electrode voltage-clamp recordings, Xenopus laevis oocytes, NR2A. Particulars: current in the absence of compound = 100%, 100 μM glutamate plus 30 μM glycine, read-out: NR2A response. The protocol: as §1
The target in test [3] is recombinant rat GluN1/GluN2B receptors (NR2B) (Rattus norvegicus (Rat), UniProt P35439+Q00960). Briefly: Two-electrode voltage-clamp recordings, Xenopus laevis oocytes, NR2B. Particulars: current in the absence of compound = 100%, 100 μM glutamate plus 30 μM glycine, read-out: NR2B response. The protocol: as §1
In test [4] the target is recombinant rat GluN1/GluN2D receptors (NR2D) (Rattus norvegicus (Rat), UniProt P35439+Q62645). Briefly: Two-electrode voltage-clamp recordings, Xenopus laevis oocytes, NR2D. Particulars: current in the absence of compound = 100%, 100 μM glutamate plus 30 μM glycine, read-out: NR2D response. The protocol: as §1
The target of test [5] is recombinant rat GluN1/GluN2C receptors (NR2C) (Rattus norvegicus (Rat), UniProt Q00961). Briefly: Two-electrode voltage-clamp recordings, Xenopus laevis oocytes, NR2C. Particulars: at 100 uM; current in the absence of compound = 100%; 100 μM glutamate plus 30 μM glycine. The protocol: as §1
Sequence of recombinant rat GluN1/GluN2C receptors (NR2C) (Rattus norvegicus (Rat), UniProt Q00961) (Q00961 20-1237, other chains not shown): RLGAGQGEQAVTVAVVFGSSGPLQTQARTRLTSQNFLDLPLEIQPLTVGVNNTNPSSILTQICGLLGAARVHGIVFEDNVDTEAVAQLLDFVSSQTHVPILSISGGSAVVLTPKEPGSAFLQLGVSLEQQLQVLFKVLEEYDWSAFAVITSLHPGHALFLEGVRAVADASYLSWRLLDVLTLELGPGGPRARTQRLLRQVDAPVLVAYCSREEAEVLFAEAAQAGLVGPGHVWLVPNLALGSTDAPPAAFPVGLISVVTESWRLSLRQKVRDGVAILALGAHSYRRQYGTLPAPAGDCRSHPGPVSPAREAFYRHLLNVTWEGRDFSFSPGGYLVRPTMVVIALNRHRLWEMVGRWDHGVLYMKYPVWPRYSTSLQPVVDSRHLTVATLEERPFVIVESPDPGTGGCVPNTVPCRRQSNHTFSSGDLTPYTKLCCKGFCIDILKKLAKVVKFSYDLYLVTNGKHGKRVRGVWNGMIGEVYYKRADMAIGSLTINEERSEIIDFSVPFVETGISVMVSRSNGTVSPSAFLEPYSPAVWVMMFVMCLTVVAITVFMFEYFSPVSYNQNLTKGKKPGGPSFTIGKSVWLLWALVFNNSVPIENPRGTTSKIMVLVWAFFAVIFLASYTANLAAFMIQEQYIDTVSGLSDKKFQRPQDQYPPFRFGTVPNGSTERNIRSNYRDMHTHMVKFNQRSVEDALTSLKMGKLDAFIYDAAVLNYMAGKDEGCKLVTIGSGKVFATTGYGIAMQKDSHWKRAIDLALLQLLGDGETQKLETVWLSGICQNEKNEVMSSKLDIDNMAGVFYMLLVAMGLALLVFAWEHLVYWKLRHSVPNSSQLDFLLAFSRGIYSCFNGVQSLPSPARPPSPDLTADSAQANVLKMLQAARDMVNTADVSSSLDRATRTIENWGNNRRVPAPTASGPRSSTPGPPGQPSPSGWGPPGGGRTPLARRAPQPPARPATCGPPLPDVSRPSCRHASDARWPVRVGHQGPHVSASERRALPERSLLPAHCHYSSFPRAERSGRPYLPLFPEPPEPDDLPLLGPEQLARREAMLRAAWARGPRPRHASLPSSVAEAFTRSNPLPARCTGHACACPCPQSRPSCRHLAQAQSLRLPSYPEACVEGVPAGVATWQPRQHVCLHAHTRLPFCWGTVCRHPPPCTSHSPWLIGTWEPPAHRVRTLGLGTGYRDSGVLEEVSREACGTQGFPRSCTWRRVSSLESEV

Sequence of recombinant rat GluN1/GluN2B receptors (NR2B) (Q00960 27-1482, other chains not shown): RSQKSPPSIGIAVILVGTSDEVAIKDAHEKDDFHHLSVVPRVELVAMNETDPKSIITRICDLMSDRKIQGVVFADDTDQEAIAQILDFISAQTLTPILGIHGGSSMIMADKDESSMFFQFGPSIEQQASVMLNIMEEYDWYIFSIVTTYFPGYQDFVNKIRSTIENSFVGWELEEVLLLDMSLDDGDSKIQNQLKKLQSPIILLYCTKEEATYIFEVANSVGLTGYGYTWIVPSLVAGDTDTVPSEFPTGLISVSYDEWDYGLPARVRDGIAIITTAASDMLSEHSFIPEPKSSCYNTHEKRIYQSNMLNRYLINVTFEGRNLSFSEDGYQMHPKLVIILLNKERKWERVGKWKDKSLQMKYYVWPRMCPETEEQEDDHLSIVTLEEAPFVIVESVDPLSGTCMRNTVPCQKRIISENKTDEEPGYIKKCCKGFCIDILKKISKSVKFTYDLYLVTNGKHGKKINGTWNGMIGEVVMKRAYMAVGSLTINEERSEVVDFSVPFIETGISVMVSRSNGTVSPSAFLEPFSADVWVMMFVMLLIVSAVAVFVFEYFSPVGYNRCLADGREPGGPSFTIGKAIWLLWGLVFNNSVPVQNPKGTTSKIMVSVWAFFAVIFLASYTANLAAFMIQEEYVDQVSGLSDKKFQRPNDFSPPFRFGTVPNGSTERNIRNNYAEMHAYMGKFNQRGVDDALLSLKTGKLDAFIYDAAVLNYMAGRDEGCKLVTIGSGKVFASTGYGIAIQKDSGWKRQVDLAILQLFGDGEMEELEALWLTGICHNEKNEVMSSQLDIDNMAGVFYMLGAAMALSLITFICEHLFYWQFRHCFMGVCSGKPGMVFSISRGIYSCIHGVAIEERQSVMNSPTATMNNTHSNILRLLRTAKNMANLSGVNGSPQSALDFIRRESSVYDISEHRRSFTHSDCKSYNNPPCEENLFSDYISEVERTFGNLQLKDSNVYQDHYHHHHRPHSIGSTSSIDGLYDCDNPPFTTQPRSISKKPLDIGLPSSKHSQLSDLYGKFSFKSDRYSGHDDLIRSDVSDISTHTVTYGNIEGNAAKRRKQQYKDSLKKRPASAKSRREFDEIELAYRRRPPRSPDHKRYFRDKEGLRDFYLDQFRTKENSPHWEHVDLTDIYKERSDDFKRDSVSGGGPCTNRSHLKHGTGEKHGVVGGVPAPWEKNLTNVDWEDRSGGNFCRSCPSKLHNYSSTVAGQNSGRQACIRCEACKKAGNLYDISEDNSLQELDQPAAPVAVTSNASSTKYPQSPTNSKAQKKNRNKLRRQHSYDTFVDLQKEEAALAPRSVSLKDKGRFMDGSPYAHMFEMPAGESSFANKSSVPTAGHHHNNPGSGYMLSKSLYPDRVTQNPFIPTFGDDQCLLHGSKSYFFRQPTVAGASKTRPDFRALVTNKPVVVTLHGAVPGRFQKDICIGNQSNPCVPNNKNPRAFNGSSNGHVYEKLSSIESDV
Sequence of recombinant rat GluN1/GluN2A receptors (NR2A) (Q00959 23-1464, other chains not shown): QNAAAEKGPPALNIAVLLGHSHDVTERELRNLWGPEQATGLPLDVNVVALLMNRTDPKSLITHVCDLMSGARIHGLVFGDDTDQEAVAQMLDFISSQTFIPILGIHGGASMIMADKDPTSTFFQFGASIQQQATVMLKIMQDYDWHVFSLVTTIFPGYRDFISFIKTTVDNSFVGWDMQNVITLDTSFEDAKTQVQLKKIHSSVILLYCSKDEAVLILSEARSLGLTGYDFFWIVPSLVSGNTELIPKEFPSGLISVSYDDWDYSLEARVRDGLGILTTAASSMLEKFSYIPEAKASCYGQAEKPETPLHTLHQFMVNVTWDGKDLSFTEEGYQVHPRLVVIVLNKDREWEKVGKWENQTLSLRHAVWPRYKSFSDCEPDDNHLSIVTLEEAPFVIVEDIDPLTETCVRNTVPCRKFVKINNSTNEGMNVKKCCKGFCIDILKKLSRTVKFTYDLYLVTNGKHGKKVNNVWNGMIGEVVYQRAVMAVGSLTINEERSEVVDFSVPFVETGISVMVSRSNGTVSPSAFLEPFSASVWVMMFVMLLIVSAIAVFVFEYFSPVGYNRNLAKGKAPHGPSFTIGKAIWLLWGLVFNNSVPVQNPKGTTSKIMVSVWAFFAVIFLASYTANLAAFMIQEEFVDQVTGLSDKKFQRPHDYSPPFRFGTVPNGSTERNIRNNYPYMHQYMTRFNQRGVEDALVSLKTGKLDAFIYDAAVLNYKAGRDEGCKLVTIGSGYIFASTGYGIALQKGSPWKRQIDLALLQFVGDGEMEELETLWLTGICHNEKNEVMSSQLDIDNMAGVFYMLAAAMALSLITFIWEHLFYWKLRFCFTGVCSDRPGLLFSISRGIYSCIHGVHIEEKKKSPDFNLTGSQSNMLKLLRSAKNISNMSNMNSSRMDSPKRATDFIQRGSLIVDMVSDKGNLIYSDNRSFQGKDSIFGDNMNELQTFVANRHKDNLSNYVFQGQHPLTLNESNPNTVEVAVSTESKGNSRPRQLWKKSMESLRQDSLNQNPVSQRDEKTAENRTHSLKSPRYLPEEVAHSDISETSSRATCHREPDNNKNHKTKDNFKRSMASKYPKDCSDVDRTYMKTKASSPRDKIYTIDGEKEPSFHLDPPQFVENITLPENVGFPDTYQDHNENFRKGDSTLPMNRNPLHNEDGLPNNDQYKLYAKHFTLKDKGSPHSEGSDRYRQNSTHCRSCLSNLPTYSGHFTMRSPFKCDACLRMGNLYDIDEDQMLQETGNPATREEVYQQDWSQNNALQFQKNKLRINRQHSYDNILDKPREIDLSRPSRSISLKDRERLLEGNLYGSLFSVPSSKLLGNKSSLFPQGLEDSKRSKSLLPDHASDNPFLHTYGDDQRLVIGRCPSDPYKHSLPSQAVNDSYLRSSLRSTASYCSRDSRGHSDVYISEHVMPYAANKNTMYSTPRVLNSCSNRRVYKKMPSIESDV
Sequence of recombinant rat GluN1/GluN2C receptors (NR2C) (Rattus norvegicus (Rat), UniProt P35439+Q00961) (Q00961 20-1237, other chains not shown): as the sequence (Q00961 20-1237, other chains not shown) above

For the compound `COC(=O)c1ccc(C2C(C(=O)c3cccnc3)=C(O)C(=O)N2CCc2c[nH]c3cc(C)ccc23)cc1` (centres unmarked), the EC50 (potentiation) in test [1] came to 4 µM. For the same compound, the activity at 100 µM turned out to be 91% in test [2], 66% in test [3] and 64% in test [4].
Taken in the same sequence, the figures for `CCOC(=O)c1ccc(C2C(C(=O)c3cccnc3)=C(O)C(=O)N2CCc2c[nH]c3cc(C)ccc23)cc1` (centres unmarked) were 7 µM, 74%, 61% and 69%.
Taken in the same sequence, the figures for `CCOC(=O)c1ccc(C2C(C(=O)c3ccncc3)=C(O)C(=O)N2CCc2c[nH]c3cc(C)ccc23)cc1` (centres unmarked) were 9 µM, 99%, 77% and 73%.
Taken in the same sequence, the figures for `COC(=O)c1ccc(C2C(C(=O)c3ccncc3)=C(O)C(=O)N2CCc2c[nH]c3ccccc23)cc1` (centres unmarked) were 8 µM, 78%, 72% and 72%.
Turning to `CCOC(=O)c1ccc(C2C(C(C)=O)=C(O)C(=O)N2CCc2c[nH]c3ccccc23)cc1` (centres unmarked), in test [1], the EC50 (potentiation) worked out at 15 µM. The values for the activity at 100 µM in test [2], in test [3] and in test [4] were 96%, 75% and 79%, respectively.
For `CCOC(=O)c1ccc(C2C(C(C)=O)=C(O)C(=O)N2CCc2c(C)[nH]c3ccccc23)cc1` (centres unmarked), in that order: 12 µM, 89%, 79% and 73%.
Taken in the same sequence, the figures for `COC(=O)c1ccc(C2C(C(C)=O)=C(O)C(=O)N2CCc2c[nH]c3ccccc23)c(OC)c1` (centres unmarked) were 20 µM, 99%, 79% and 99%.
As for `COC(=O)c1ccc(C2C(C(C)=O)=C(O)C(=O)N2CCc2c[nH]c3ccccc23)c(O)c1` (centres unmarked), the EC50 (potentiation) in test [1] was 15 µM. Further, the activity at 100 µM in test [2] was 102%; in test [3], 77%; in test [4], 79%.
Taken in the same sequence, the figures for `COC(=O)c1ccc(C2C(C(=O)c3cccnc3)=C(O)C(=O)N2CCc2c[nH]c3cc(F)ccc23)cc1` (centres unmarked) were 14 µM, 80%, 37% and 64%.
Taken in the same sequence, the figures for `COC(=O)c1ccc(C2C(C(=O)c3cccnc3)=C(O)C(=O)N2CCc2c[nH]c3cc(Cl)ccc23)cc1` (centres unmarked) were 4 µM, 83%, 43% and 61%.
For `COC(=O)c1ccc(C2C(C(=O)c3ccccc3Cl)=C(O)C(=O)N2CCc2c[nH]c3ccccc23)cc1` (centres unmarked), in that order: 26 µM, 68%, 72% and 115%.
Turning to `COC(=O)c1ccc(C2C(C(=O)c3cccc(O)c3)=C(O)C(=O)N2CCc2c[nH]c3ccccc23)cc1` (centres unmarked), the EC50 (potentiation) in test [1] is 5 µM. Moreover, the activity at 100 µM in test [2] worked out at 76%.
Consider `COC(=O)c1ccc(C2C(C(=O)c3ccncc3)=C(O)C(=O)N2CCc2cccc3ccccc23)cc1` (centres unmarked), for which the EC50 (potentiation) in test [1] was 11 µM.
In the case of `O=C(C1=C(O)C(=O)N(CCc2c[nH]c3ccccc23)C1c1cccs1)c1cccnc1` (centres unmarked), in test [1], the EC50 (potentiation) was 12 µM. For the same compound, the activity at 100 µM in test [2] was 43%; in test [3], 71%; in test [4], 73%.
Turning to `COC(=O)c1ccc(C2C(C(=O)c3ccncc3)=C(O)C(=O)N2CCc2c[nH]cn2)cc1` (centres unmarked), the NR2C response in test [5] was found to be 84% response at 100 uM. Further, the activity at 100 µM in test [2] is 97%; in test [3], 91%; in test [4] it was 90%.
Consider `COC(=O)c1ccc(C2C(C(=O)c3ccncc3)=C(O)C(=O)N2CCc2ccncc2)cc1` (centres unmarked), for which, in test [5], the NR2C response turned out to be 97% response at 100 uM. Further, the activity at 100 µM in test [2] was determined as 103%; in test [3], 94%; in test [4] it was 95%.
